One may read the MIC as the least concentration at which growth counts as inhibited. A high value points to a less susceptible organism.

The values that follow come from DBAASP.

Values after ≈ are worked out from the molar mass of the structure shown. Values joined by “and” are separate entries in the source; they are usually repeats but may differ in a detail not shown here. Identical values can stand only once.

Some test systems named below: Listeria ivanovii; Saccharomyces cerevisiae; Bacillus megaterium; Bacillus subtilis; Neurospora crassa; Salmonella typhimurium; Trichoderma viride; Escherichia coli D31; Botrytis cinerea; Ascochyta pisi; Aerococcus viridans; Escherichia coli D22; Pediococcus acidilactici; Micrococcus luteus; Fusarium culmorum; Fusarium haematococcum; Alternaria brassicicola; Klebsiella pneumoniae; Streptococcus pyogenes; Streptococcus agalactiae; Streptococcus mutans; Escherichia coli MG1655; Bacillus subtilis PS832; Escherichia coli DL7.

Assay in all cases: ≥ marks a high value that may be exact or a test limit, other limits are often not marked, values filed in µg/mL are converted to µM
Experiment [1] relates to Mycobacterium tuberculosis CSU87.
In experiment [2] the test system is Mycobacterium tuberculosis H37Rv.
In experiment [3] the test system is Streptococcus pyogenes ATCC 19615.
Experiment [4] relates to Klebsiella pneumoniae ATCC 13883.
Experiment [5] has as its system Escherichia coli ATCC 25922.
Experiment [6] relates to Candida albicans ATCC 90028.
Experiment [7] concerns Candida parapsilosis ATCC 22019.
Experiment [8] relates to Pseudomonas aeruginosa ATCC 27853.
In experiment [9] the test system is Enterococcus faecalis ATCC 29212.
For experiment [10], the system named is Staphylococcus aureus ATCC BAA-44.
Experiment [11] deals with Acinetobacter baumannii ATCC 19606.
The test system of experiment [12] is Staphylococcus aureus ATCC 25923.
The subject of experiment [13] is Mycobacterium tuberculosis mc2-6230.
Experiment [14] has as its system Bacillus subtilis BGSC 1A1.
Experiment [15] deals with Streptococcus pneumoniae ATCC 49619.
For experiment [16], the system named is Mycobacterium tuberculosis mc2-6020.
The subject of experiment [17] is Streptococcus sanguinis ATCC 10556.
Experiment [18] deals with Streptococcus mutans UA159.
In experiment [19] the test system is Streptococcus sobrinus ATCC 6715.
Experiment [20] relates to Staphylococcus epidermidis ATCC 12228.
The subject of experiment [21] is Klebsiella aerogenes ATCC 13048.
Experiment [22] has as its system Escherichia coli MG1655 ΔrecA.

In the case of `CC(C)C[C@H](NC(=O)[C@H](CC(C)C)NC(=O)[C@H](CCCCN)NC(=O)[C@H](CCCCN)NC(=O)[C@H](CC(C)C)NC(=O)[C@H](CC(C)C)NC(=O)[C@@H](N)CS)C(=O)N[C@@H](CCCCN)C(=O)N[C@@H](CCCCN)C(N)=O` [CLLKKLLKK], the minimum inhibitory concentration (MIC) in experiment [1] and in experiment [2] was ≥ 460 µM throughout.

For `CC[C@H](C)[C@H](NC(=O)[C@H](CCCN=C(N)N)NC(=O)[C@H](CO)NC(=O)[C@H](CC(C)C)NC(=O)[C@H](Cc1ccccc1)NC(=O)[C@H](CO)NC(=O)[C@@H](N)Cc1ccccc1)C(=O)N[C@@H](Cc1ccccc1)C(N)=O` [FSFLSRIF], the minimum inhibitory concentration (MIC) was ≥ 50 µM in [3]; ≥ 100 µM in [4]; 100 µM (≈ 102 µg/mL) in experiment [5]; ≥ 100 µM in the experiment with Listeria ivanovii; ≥ 100 µM in [6]; ≥ 100 µM in [7]. The minimal inhibitory concentration (MIC) in experiment [8] is > 100 µM; with Saccharomyces cerevisiae it was 25 µM (≈ 25.4 µg/mL); in [9] it was > 100 µM; in experiment [10] it was ≥ 100 µM; in experiment [11] it was > 100 µM; in experiment [12] it was > 100 µM.

Consider `CC[C@H](C)[C@H](NC(=O)[C@@H](NC(=O)[C@@H]1CCCN1C(=O)[C@@H](NC(=O)[C@@H]1CCCN1C(=O)[C@H](CCCCN)NC(=O)[C@H](CCCCN)NC(=O)[C@H](CO)NC(=O)CN)C(C)C)[C@@H](C)CC)C(=O)N[C@@H](Cc1ccc(O)cc1)C(=O)N[C@H]1CSSC[C@@H](C(=O)N[C@@H](CCC(N)=O)C(=O)N[C@@H](CCCN=C(N)N)C(=O)O)NC(=O)[C@H](CCCCN)NC(=O)CNC(=O)[C@H]([C@@H](C)O)NC(=O)[C@H](CCCN=C(N)N)NC(=O)[C@H](CCCN=C(N)N)NC(=O)[C@H](CC(N)=O)NC1=O` [GSKKPVPIIYCNRRTGKCQR], for which the MIC against Bacillus megaterium amounted to 3.54 µM (≈ 8.14 µg/mL); in the experiment on Bacillus subtilis, 28.3 µM (≈ 65.1 µg/mL); in the experiment with Neurospora crassa it was 7.07 µM (≈ 16.3 µg/mL); with Salmonella typhimurium it was 28.3 µM (≈ 65.1 µg/mL); with Trichoderma viride it was 14.1 µM (≈ 32.6 µg/mL); with Escherichia coli D31 it was 28.3 µM (≈ 65.1 µg/mL). In addition, the MIC turned out to be 7.07 µM (≈ 16.3 µg/mL) against Botrytis cinerea; 14.1 µM (≈ 32.6 µg/mL) against Ascochyta pisi; 3.54 µM (≈ 8.14 µg/mL) in the experiment on Aerococcus viridans; 28.3 µM (≈ 65.1 µg/mL) in the experiment with Escherichia coli D22; 28.3 µM (≈ 65.1 µg/mL) against Pediococcus acidilactici; 3.54 µM (≈ 8.14 µg/mL) with Micrococcus luteus. For the same compound, the minimal inhibitory concentration (MIC) against Fusarium culmorum worked out at 14.1 µM (≈ 32.6 µg/mL); in the experiment on Fusarium haematococcum, 3.54 µM (≈ 8.14 µg/mL); in the experiment with Alternaria brassicicola, 7.07 µM (≈ 16.3 µg/mL).

As for `CC[C@H](C)[C@H](N)C(=O)N[C@@H](CC(C)C)C(=O)N[C@@H](CO)C(=O)N[C@@H](CC(C)C)C(=O)N[C@@H](CCCN=C(N)N)C(=O)N[C@@H](Cc1c[nH]c2ccccc12)C(=O)N[C@@H](Cc1c[nH]c2ccccc12)C(=O)N[C@@H](CCCN=C(N)N)C(=O)N[C@@H](CCCCN)C(=O)N[C@@H](Cc1c[nH]c2ccccc12)C(=O)N[C@@H](Cc1c[nH]c2ccccc12)C(=O)N[C@@H](CCCCN)C(=O)N[C@@H](CCCCN)C(=O)O` [ILSLRWWRKWWKK], the MIC is ≥ 32 µM in [13]; 16 µM (≈ 30.2 µg/mL) in experiment [5]; 136 µM (≈ 257 µg/mL) against Klebsiella pneumoniae; 4 µM (≈ 7.55 µg/mL) in [14]; 16 µM (≈ 30.2 µg/mL) in [15]; 2 µM (≈ 3.77 µg/mL) in the experiment on Streptococcus pyogenes. The minimal inhibitory concentration (MIC) worked out at 8 µM (≈ 15.1 µg/mL) in the experiment on Streptococcus agalactiae; 32 µM (≈ 60.4 µg/mL) in [8]; 4 µM (≈ 7.55 µg/mL) against Streptococcus mutans; 16 µM (≈ 30.2 µg/mL) in experiment [16]; 32 µM (≈ 60.4 µg/mL) in experiment [12].

As for `NCCCC[C@H](NC(=O)[C@H](CCCCN)NC(=O)[C@H](Cc1ccccc1)NC(=O)[C@H](Cc1ccccc1)NC(=O)[C@H](CCCCN)NC(=O)[C@H](CCCCN)NC(=O)[C@H](Cc1ccccc1)NC(=O)[C@H](Cc1ccccc1)NC(=O)[C@@H](N)CCCCN)C(=O)N[C@@H](Cc1c[nH]c2ccccc12)C(=O)O` [KFFKKFFKKW], the MIC is ≥ 357 µM in experiment [17], ≥ 357 µM in experiment [18] and ≥ 179 µM in experiment [19].

As for `CC(C)C[C@H](NC(=O)CNC(=O)[C@H](C)NC(=O)[C@@H](N)CCCN=C(N)N)C(=O)N[C@@H](CCC(N)=O)C(=O)N[C@@H](Cc1ccccc1)C(=O)N1CCC[C@H]1C(=O)N[C@H](C(=O)NCC(=O)N[C@@H](CCCN=C(N)N)C(=O)N[C@H](C(=O)N[C@@H](Cc1cnc[nH]1)C(=O)N[C@@H](CCCN=C(N)N)C(=O)N[C@@H](CC(C)C)C(=O)N[C@@H](CC(C)C)C(=O)N[C@@H](CCCN=C(N)N)C(=O)N[C@@H](CCCCN)C(N)=O)C(C)C)C(C)C` [RAGLQFPVGRVHRLLRK], the MIC with Escherichia coli MG1655 was ≥ 64 µM; against Bacillus subtilis PS832, 8 µM (≈ 16 µg/mL); in the experiment with Escherichia coli DL7, ≥ 32 µM and 16 µM; in experiment [15] it was ≥ 300 µM; in experiment [20], 8 µM (≈ 16 µg/mL); in experiment [2], ≥ 300 µM. Also, the MIC in experiment [21] is ≥ 64 µM; in experiment [22], ≥ 32 µM.
